According to patent US20050118310A1, “Formulations of compounds derived from natural sources and their use with irradiation for food preservation” (priority 2001, published 2005):
Marks after values point to notes of the source that are not given here.

Assays:
S. typhi [1] = test: Irradiation sensitivity (D10) of S. typhi in ground beef; format: cell-based, Salmonella typhi (ATCC 19430)
E. coli [2] = test: Irradiation sensitivity (D10) of E. coli in ground beef; format: cell-based, Escherichia coli (ATCC 25922)
[3] = system: Six pathogenic and spoilage bacteria, commonly found in meat and meat products; test: MIC in artificial culture media (1 log reduction); format: cell-based
Procedure: The concentration ot each active compound added to the meat samples was based on results obtained in a previous experiment. These concentrations represent the minimum inhibitory concentrations (MIC) of the active compounds required to be present in artificial culture media in order to reduce by 1 log the number of bacteria in culture. Six pathogenic and spoilage bacteria, commonly found in meat and meat products, were tested. […] The concentration used for carnosine (1.0%) was selected from the literature (Sebranek, 1999). The concentrations of BHA (0.01%), BHT (0.01%), EDTA (100 ppm), and tetrasodium pyrophosphate (0.1%) corresponded to the concentrations recommended by the Canadian Food Inspection Agency (CFIA).
This value was detennined by testing six pathogenic and spoilage bacteria, commonly found in meat and meat products.

E. coli [4] = test: MIC (D10 %) of active compounds in ground beef, E. coli; format: cell-based, Escherichia coli (ATCC 25922); settings: non-irradiated ground beef, 10^5 CFU/g, stored at 4° C. for 24 hours; % w/w or v/w
Procedure: (§1) Escherichia coli (ATCC 25922) and Salmonella typhi (ATCC 19430) were obtained from the American Type Culture Collection (Rockville, Md., USA) and maintained at −80° C. in Tryptic Soy Broth (TSB; Difco Laboratory, Detroit, Mich.) containing glycerol (10%; v/v). Before each experiment, stock cultures were subcultured through two consecutive 24 h growth cycles in TSB at 35° C. to obtain working cultures containing approximately 10^9 UCF/ml for E. coli and S. typhi.
(§2) Samples were homogenised for 2 min in sterile peptone water (0.1%) using a Lab-blender 400 stomacher (Laboratory Equipment, London, UK). From this mixture, serial dilutions were prepared and appropriate ones were pour-plated in tryptic soy agar (TSA) (Difco, Laboratories, Detroit, Mich., USA) and incubated at 35° C., 24 hours for the numeration of E. coli and S. typhi.
(§3) D10 deteriiination: The kinetics of bacteria destruction by irradiation with or without the active compounds and under different packaging conditions was evaluated by linear regression. Bacterial counts (log CFU/ml) were plotted against irradiation doses or compound concentrations and the D10 values were calculated using SigmaPlot program. Statistical analysis was done using SPSS program. The Duncan test was used with a probability of 0.05.
(§4) The MIC values for the active compounds were determined on the basis of their antibacterial effectiveness in meat. Concentrations retained were those to reduce by 1 log CFU the population of E. coli or S. typhi in ground beef. Ground beef samples weighing 200 g were contaminated with working cultures of E. coli or S. typhi to obtain a final concentration of 10^5 CFU/g. The ground beef samples containing micro-organisms was mixed during 3 minutes at medium speed in a 4L-conmmercial blender (Waring Products, New Hartford, Col., USA) and different concentrations of the active compounds were incorporated, followed by another 3 minutes period mixing. Sterile petri plates (60×15 mm) were filled with ground beef samples containing micro-organisms and different concentrations of active compounds in portion of 25 g each and stored at 4° C. for 24 hours.
(§5) In addition to the above compounds, minimal concentrations of different types of commercial Herbalox® and Duralox® required to reduce by 1 log the bacterial population of E. coli in ground beef were evaluated. […] However, an estimation of the minimal concentration was calculated using the slope of the curve.

S. typhi [5] = test: MIC (D10 %) of active compounds in ground beef, S. typhi; format: cell-based, Salmonella typhi (ATCC 19430); settings: non-irradiated ground beef, 10^5 CFU/g, stored at 4° C. for 24 hours; % w/w or v/w
Procedure: as §1, §2, §3, §4, §5

S. typhi [6] = test: Irradiation sensitivity of S. typhi in chicken breast; format: cell-based, Salmonella typhi (ATCC 19430)
E. coli [7] = test: Irradiation sensitivity of E. coli in chicken breast; format: cell-based, Escherichia coli (ATCC 25922); settings: trans-cinnamaldehyde 0.050%, thymol 0.038%, tetrasodium pyrophosphate 0.003%, carvacrol 0.029%
[8] = ground beef, air, 4° C., lower concentration: tannic acid 0.38%, nisin 625 UI/g, EDTA 100 ppm, carvacrol […], tetrasodium pyrophosphate 0.1%, trans-cinnamaldehyde […], thymol 0.1%, thyme 0.2%, BHT 0.01%, BHA 0.01%, rosemary 0.5%, carnosine 1.0%, ascorbic acid 0.5%
[9] = vs control, ground beef, air, 4° C., tannic acid 0.38%, nisin 625 UI/g, EDTA 100 ppm, carvacrol […], tetrasodium pyrophosphate 0.1%, trans-cinnamaldehyde […], thymol 0.1%, thyme 0.2%, BHT 0.01%, BHA 0.01%, rosemary 0.5%, carnosine 1.0%, ascorbic acid 0.5%
[10] = ground beef, air, 4° C., lower concentration: thymol 0.1%, tannic acid 0.38%, rosemary 0.5%, BHT 0.01%, trans-cinnamaldehyde […], carvacrol […], thyme 0.2%, BHA 0.01%, nisin 625 UI/g, EDTA 100 ppm, tetrasodium pyrophosphate 0.1%, carnosine 1.0%, ascorbic acid 0.5%
[11] = vs control, negative = protective effect, ground beef, air, 4° C., thymol 0.1%, tannic acid 0.38%, rosemary 0.5%, BHT 0.01%, trans-cinnamaldehyde […], carvacrol […], thyme 0.2%, BHA 0.01%, nisin 625 UI/g, EDTA 100 ppm, tetrasodium pyrophosphate 0.1%, carnosine 1.0%, ascorbic acid 0.5%

Compound	D10(kGy) (S. typhi [1]; [8])	Increase in Sensitivity (S. typhi [1]; [9])	D10(kGy) (E. coli [2]; [10])	Increase in Sensitivity (E. coli [2]; [11])	D10 (%): minimal concentration of active compound required to reduce E. coli population by 1 log in ground beef (E. coli [4])	D10 (%): minimal concentration of active compound required to reduce S. typhi population by 1 log in ground beef (S. typhi [5])	also measured
COc1ccc(O)c(C(C)(C)C)c1 [BHA, butylated hydroxyanisole]	0.407 ± 0.0123^h kGy	22.6%	0.117 ± 0.0026^ef kGy	7.1%	–	–	–
O=C1O[C@H]([C@@H](O)CO)C(O)=C1O [Ascorbic acid]	–	–	–	–	2.71 ± 0.26^b %	1.83 ± 0.06^ab %	Mean values of MIC (concentration required in artificial culture media to reduce by 1 log the number of bacteria) [3]: 0.5%
O=P([O-])([O-])OP(=O)([O-])[O-].[Na+].[Na+].[Na+].[Na+] [Tetrasodium pyrophosphate, tetrasodium pyrophosphate]	–	–	–	–	–	–	D10(kGy) (S. typhi [6]; chicken breast, 4° C., trans-cinnamaldehyde 0.030%, tetrasodium pyrophosphate 0.003%, carvacrol 0.038%, thymol […]): 0.520 ± 0.030^b kGy; factor by which the effect was reduced in the chicken breast (S. typhi [6]; concentration of 1/30 of the MIC value in ground beef, compared with ground beef at MIC): 1.5; irradiation dose necessary to completely eliminate S. typhi from the chicken breast (S. typhi [6]; trans-cinnamaldehyde 0.030%, tetrasodium pyrophosphate 0.003%, carvacrol 0.038%, thymol […]): 2.6 kGy; Increase in Sensitivity (S. typhi [6]; vs control, chicken breast, trans-cinnamaldehyde 0.030%, tetrasodium pyrophosphate 0.003%, carvacrol 0.038%, thymol […]): 19.1%; D10(kGy) (E. coli [7]; chicken breast, 4° C.): 0.141 ± 0.012^bc kGy; irradiation dose necessary to completely eliminate E. coli from the chicken breast (E. coli [7]): 0.75 kGy; Increase in Sensitivity (E. coli [7]; vs control, chicken breast): 2.7%
nisin	0.420 ± 0.0040^hi kGy	20.2%	0.120 ± 0.0089^efg kGy	4.8%	–	–	–
O=C(OC[C@H]1O[C@@H](OC(=O)c2cc(O)c(O)c(OC(=O)c3cc(O)c(O)c(O)c3)c2)[C@H](OC(=O)c2cc(O)c(O)c(OC(=O)c3cc(O)c(O)c(O)c3)c2)[C@@H](OC(=O)c2cc(O)c(O)c(OC(=O)c3cc(O)c(O)c(O)c3)c2)[C@@H]1OC(=O)c1cc(O)c(O)c(OC(=O)c2cc(O)c(O)c(O)c2)c1)c1cc(O)c(O)c(OC(=O)c2cc(O)c(O)c(O)c2)c1 [Tannic acid, tannic acid]	–	–	–	–	11.15 ± 2.04^c %	21.18 ± 2.07^d %	–
O=C(O)CN(CCN(CC(=O)O)CC(=O)O)CC(=O)O [EDTA]	–	–	–	–	–	–	D10(kGy) (S. typhi [1]): 0.419 ± 0.0198^hi kGy; Increase in Sensitivity (S. typhi [1]): 20.3%; D10(kGy) (E. coli [2]): 0.127 ± 0.0033^gh kGy; Increase in Sensitivity (E. coli [2]): −0.8%
